Data reported in patent US20240207159A1, “SKIN PENETRATION IMPROVER” (KANEKA CORPORATION, priority 2021, published 2024).
Blank lines part the entries; values can stand above or below the compound they belong to.

How the values were obtained:
Format in all cases: in vitro ADME, human
[1] = Transdermal absorption test using cosmetics component (Franz diffusion cell, tape stripping, HPLC); conditions: for Penetration amount into epidermis/dermis (%) / Penetration amount into stratum corneum (%) / Wiping + first layer (%): 2 mg/cm^2, 6 hours; for Penetration amount into epidermis/dermis (%) / Penetration amount into stratum corneum (%) / Wiping + first layer (%) / Passing amount (%): ratio to 100 as total retrieved amount; for Passing amount (%): receptor liquid, 6 hours; for skin penetration property into the skin: combination of surfactin and a phospholipid in comparison with the aqueous solution
Procedure: The skin penetration properties of niacinamide and arbutin, which are often mixed in cosmetics as active ingredients, were evaluated by a similar test to Example 1. A circle human skin sample having a thickness of about 700 μm was attached to a test cell of an In vitro transdermal penetration test device (“TransView C12” manufactured by CosMED). The test cell is an open system Franz diffusion cell having an effective diameter of 2.0 cm, an area of 3.14 cm- and a receptor liquid volume of 2.4 mL. An electrical resistance value was measured to confirm that there were not any problems with the sample. Then, the test cell was filled with a phosphate buffer solution of pH 7.0 as a receptor liquid. The phosphate buffer solution of pH 7.0 containing 2 mass % surfactin sodium salt (SF), 1 mass % natural lecithin and 5 mass % active ingredient was applied to the skin sample at a rate of 2 mg/cm^2, and the skin sample was installed at the test device of which temperature was maintained at 32° C. to start the test. A phosphate buffer solution containing 5 mass % active ingredient was concurrently subjected to the test as control.
(§1) The skin sample was taken out of the test cell 6 hours after the start of the test, and the surface was wiped using cotton. Then, the first round of tape stripping, hereinafter referred to as “TS”, was conducted using a dedicated tape, hereinafter referred to as “tape”. Specifically, the tape was attached to the skin sample and then peeled. A mixed solvent (15 mL) of ethanol:water=1:1 by v/v was added thereto, and ultrasonic wave was applied to the mixture for 1 hour for extraction. The obtained liquid was retrieved, and the above-described mixed solvent was added thereto to adjust the total amount to 20 mL as an analytic sample of “wiping+first layer”.
(§2) Then, the second or later round of TS were conducted. The number of the total times of TS was 15 at a maximum, and the number of times was adjusted depending on the condition of the skin sample surface. The tapes of second or later round were combined, and the extraction using aqueous ethanol and the total amount adjustment were conducted in a similar condition to the above to prepare an analytic sample of “penetration amount into stratum corneum”.
(§3) In addition, the remaining skin sample was finely cut and divided into two tubes for crushing. Water (0.5 mL) was added into each tube, and the skin was crushed using a crushing machine for 20 minutes. The liquid containing the crushed skin was retrieved from two tubes into one centrifuge test. Then, ethanol (12 mL) was added thereto, and the mixture was efficiently stirred and centrifuged to obtain a supernatant. Water was added to the obtained supernatant to adjust the total amount to 20 mL to prepare an analytic sample of “penetration amount into epidermis/dermis”.
(§4) The receptor liquid was also retrieved, and water was added thereto to adjust the total amount to 20 mL to prepare an analytic sample of “passing amount”. The amounts of each active ingredient in each obtained solution were measured by HPLC.
The amounts of the active ingredients retrieved from each sample of the above-described “wiping+first layer”, “penetration amount into stratum corneum”, “penetration amount into epidermis/dermis” are shown in Table 1 as ratios to 100 as the total amount retrieved from 4 samples.

[2] = Effect of concentrations of phospholipid and surfactin on penetration of active ingredient (transdermal absorption test); conditions: 5 mass % niacinamide
Procedure: A circle human skin sample having a thickness of about 700 μm was attached to a test cell of an In vitro transdermal penetration test device (“TransView C12” manufactured by CosMED). The test cell is an open system Franz diffusion cell having an effective diameter of 2.0 cm, an area of 3.14 cm- and a receptor liquid volume of 2.4 mL. An electrical resistance value was measured to confirm that there were not any problems with the sample. Then, the test cell was filled with a phosphate buffer solution of pH 7.0 as a receptor liquid. The phosphate buffer solution of pH 7.0 containing 2 mass % surfactin sodium salt (SF), 1 mass % natural lecithin and 5 mass % active ingredient was applied to the skin sample at a rate of 2 mg/cm^2, and the skin sample was installed at the test device of which temperature was maintained at 32° C. to start the test.
as §1, §2, §3, §4
The condition of Example 2 was used as a benchmark of the concentrations of a phospholipid and surfactin in the samples applied to the skin, and the concentration, the ½ concentration thereof and the 1/10 concentration thereof were tested. All of the concentrations of niacinamide in the samples were adjusted to 5 mass %. The ratio of the active ingredient amounts in each sample to 100 of the total retrieved amount are shown.

[3] = Transdermal absorption test of water-soluble fluorescent dye (Franz diffusion cell, fluorescence microscopy of frozen section); conditions: 6 hours
Procedure: A circle human skin sample having a thickness of about 700 μm was attached to a test cell of an In vitro transdermal penetration test device (“TransView C12” manufactured by CosMED). The test cell was an open system Franz diffusion cell having an effective diameter of 1.7 cm, an area of 2.27 cm^2 and a receptor liquid volume of 5.75 mL. An electrical resistance value was measured to confirm that there was not any problems with the sample. Then, the test cell was filled with a phosphate buffer solution of pH 7.0 as a receptor liquid. The phosphate buffer solution of pH 7.01 (500 μL) containing 1.5 mass % surfactin sodium salt (SF), 1 mass % phospholipid (DMPC: 1,2-dimyristoyl-sn-glycero-3-phosphocholine) and 10 mM water-soluble fluorescent dye (calcein) was applied to the skin sample, and the skin sample was installed at the test device of which temperature was maintained at 32° ° C. to start the test.
In addition, similar tests were conducted for comparison using a PBS solution of pH 7.09 containing 10 mM water-soluble fluorescent dye, a PBS solution of pH 6.99 containing 10 mM water-soluble fluorescent dye+1.5 mass % SF, and a PBS solution of pH 7.08 containing 10 mM water-soluble fluorescent dye+1 mass % phospholipid.
The skin sample was cut 6 hours after the start of the test, embedded in O. C. T. Compound, cooled using cooled acetone to be frozen, and sliced to prepare a frozen section. The cut surface was observed using a fluorescence microscope. Separately, the used human skin sample was dyed using hematoxylin-eosin and observed under magnification.
The result of the human skin sample is shown in FIG. 1, the result of the 10 mM water-soluble fluorescent dye PBS solution is shown in FIG. 2A, the result of the 10 mM water-soluble fluorescent dye+1.5 mass % SF PBS solution is shown in FIG. 2B, the result of the 10 mM water-soluble fluorescent dye+1 mass % phospholipid PBS solution is shown in FIG. 2C, and the result of the 10 mM water-soluble fluorescent dye+1 mass % phospholipid+1.5 mass % SF PBS solution is shown in FIG. 2D.

[4] = Control: phosphate buffer solution containing 5 mass % active ingredient, 32 °C
[5] = Control: phosphate buffer solution containing 5 mass % active ingredient
[6] = Example: 2 mass % SF + 1 mass % natural lecithin + 5 mass % active ingredient, phosphate buffer pH 7.0
[7] = Example: 2 mass % surfactin sodium salt (SF) + 1 mass % natural lecithin + 5 mass % active ingredient, phosphate buffer pH 7.0
[8] = 1/10 conc. of phospholipid and surfactin of Example 2
[9] = Control, ratio to 100 of total retrieved amount
[10] = Example: phospholipid and surfactin at the concentration of Example 2
[11] = ½ conc. of phospholipid and surfactin of Example 2

Penetration amount into epidermis/dermis (%) [1, 4]: 0%
Penetration amount into stratum corneum (%) [1, 4]: 5%
Wiping + first layer (%) [1, 4]: 95%
Passing amount (%) [1, 5]: 0%
Penetration amount into epidermis/dermis (%) [1, 6]: 23%
Penetration amount into stratum corneum (%) [1, 6]: 25%
Passing amount (%) [1, 6]: 0%
Wiping + first layer (%) [1, 7]: 52%
skin penetration property into the skin [1]: remarkably improved
SMILES: OC[C@H]1O[C@@H](Oc2ccc(O)cc2)[C@H](O)[C@@H](O)[C@@H]1O [Arbutin, arbutin]

Passing amount (%) [2, 8]: 15%
Penetration amount into epidermis/dermis (%) [2, 8]: 18%
Penetration amount into stratum corneum (%) [2, 8]: 26%
Wiping + first layer (%) [2, 8]: 41%
Passing amount (%) [2, 9]: 15%
Penetration amount into epidermis/dermis (%) [2, 9]: 8%
Penetration amount into stratum corneum (%) [2, 9]: 11%
Wiping + first layer (%) [2, 9]: 65%
Passing amount (%) [2, 10]: 39%
Penetration amount into epidermis/dermis (%) [2, 10]: 18%
Penetration amount into stratum corneum (%) [2, 10]: 23%
Wiping + first layer (%) [2, 10]: 19%
Passing amount (%) [2, 11]: 15%
Penetration amount into epidermis/dermis (%) [2, 11]: 18%
Penetration amount into stratum corneum (%) [2, 11]: 23%
Wiping + first layer (%) [2, 11]: 44%
Penetration amount into epidermis/dermis (%) [1, 4]: 5%
Penetration amount into stratum corneum (%) [1, 4]: 7%
Wiping + first layer (%) [1, 4]: 89%
Passing amount (%) [1, 5]: 0%
Penetration amount into epidermis/dermis (%) [1, 6]: 37%
Penetration amount into stratum corneum (%) [1, 6]: 39%
Passing amount (%) [1, 6]: 0%
Wiping + first layer (%) [1, 7]: 24%
skin penetration property into the skin [1]: remarkably improved
SMILES: NC(=O)c1cccnc1 [Niacinamide, niacinamide]

SMILES: O=C(O)CN(CC(=O)O)Cc1cc2c(cc1O)Oc1cc(O)c(CN(CC(=O)O)CC(=O)O)cc1C21OC(=O)c2ccccc21 [water-soluble fluorescent dye, calcein]
skin penetration of the water-soluble fluorescent dye (fluorescence microscope, cut surface) ([3]; PBS solution pH 6.99, 10 mM dye + 1.5 mass % SF (surfactin sodium salt), FIG. 2B): reached deeper epidermal tissue than the stratum corneum but mainly remained in the stratum corneum
skin penetration of the water-soluble fluorescent dye (fluorescence microscope, cut surface) ([3]; PBS solution pH 7.08, 10 mM dye + 1 mass % phospholipid (DMPC), FIG. 2C): reached deeper epidermal tissue than the stratum corneum but mainly remained in the stratum corneum
skin penetration of the water-soluble fluorescent dye (fluorescence microscope, cut surface) ([3]; PBS solution pH 7.09, 10 mM dye only, 32 °C, FIG. 2A): remained on the surface and could not infiltrate the deeper area than the stratum corneum
skin penetration of the water-soluble fluorescent dye (fluorescence microscope, cut surface) ([3]; phosphate buffer pH 7.01, 10 mM dye + 1 mass % phospholipid (DMPC) + 1.5 mass % SF, FIG. 2D): clearly infiltrated the epidermal tissue and also reached the dermis
